Where “and” joins values, the source holds several entries; their conditions need not be identical. Equal entries are not always repeated.
biological target: T1, CXCR2 (Homo sapiens (Human), UniProt P25025); assay: Inhibition of GROα-mediated intracellular calcium release in human neutrophils (FLIPR-3 Ca2+ mobilization); type: cell-based; conditions: human neutrophils, 25 nM GROα; read-out: IC50
Description: (§1) In Tables 1-5, the IC50 or EC50 values were determined using the following assay. This assay measures intracellular calcium release via fluorescence as an indication of CXCR2 receptor activation by the physiologic agonist GROα. The assay is a Ca^2+ mobilization assay that measures changes in intracellular Ca^2+ with a FlexStation II scanning fluorometer using a FLIPR-3 Calcium Assay Kit (Molecular Devices, Sunnyvale, Calif.). The procedure is as follows:
1. Human neutrophils were suspended in HBSS^− (without Ca^2+ and Mg^2+) containing 10 mM HEPES and FLIPR Calcium 3 dye (3.1×10^7 cells in total volume 1.7 mL).
2. […] As controls, 2 μL of DMSO (1% final concentration) were added to other 2 tubes.
3. Cells were incubated for 30 min at 37° C.
4. After dye loading, tubes were centrifuged at 6,000 rpm for 1 min, supernatant was removed and cell pellet was re-suspended in 200 μL of HBSS^+ (with Ca^2+ and Mg^2+) containing 10 mM HEPES.
5. The compound or DMSO (control) was added again at the same concentrations that were used during cell loading.
6. The cell suspension was aliquoted into a 96-well Reading Plate (Corning) in a volume of 90 μL (10^5 cells/well). The Compound Plate contained physiologic agonist (GROα in HBSS^−) or HBSS^− (control).
(§2) 9. The maximum change in fluorescence, expressed in arbitrary units over baseline (Max-Min) was used to determine the GROα response. […] Therapeutic Activity
Briefly, human neutrophils were suspended in HBSS^− (without Ca^2+ and Mg^2+) containing 10 mM HEPES and FLIPR Calcium 3 dye (3.1×10^7 cells in total volume 1.7 mL). […] As controls, 2 μL of DMSO (1% final concentration) were added to 2 other tubes. Cells were incubated for 30 min at 37° C. After dye loading, tubes were centrifuged at 6,000 rpm for 1 min, supernatant was removed and the cell pellet was re-suspended in 200 μL of HBSS^+ (with Ca^2+ and Mg^2+) containing 10 mM HEPES. The test compound or DMSO (control) was added again at the same concentrations that were used during cell loading. The cell suspension was aliquoted into a 96-well Reading Plate (Corning) in a volume of 90 μL (10^5 cells/well). The Compound Plate contained agonist (GROα in HBSS^−) or HBSS^− (control).
(§3) The maximum change in fluorescence, expressed in arbitrary units over baseline (Max-Min), was used to determine the GROα response.

T1 sequence (P25025 whole entry): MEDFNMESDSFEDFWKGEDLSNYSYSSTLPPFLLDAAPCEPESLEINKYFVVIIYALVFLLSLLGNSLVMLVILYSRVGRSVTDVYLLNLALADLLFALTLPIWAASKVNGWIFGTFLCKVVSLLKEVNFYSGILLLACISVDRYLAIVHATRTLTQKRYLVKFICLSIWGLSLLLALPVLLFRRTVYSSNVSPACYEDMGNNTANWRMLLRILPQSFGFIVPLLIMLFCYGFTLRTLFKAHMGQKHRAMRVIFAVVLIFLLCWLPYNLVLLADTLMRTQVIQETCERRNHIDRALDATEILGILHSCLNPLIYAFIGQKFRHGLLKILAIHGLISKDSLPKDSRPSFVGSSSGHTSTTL

Compound | IC50 [µM]
O=C(Nc1ccc(F)cc1)c1ccc(SCc2cc(OC(F)(F)F)ccc2O)nc1 [Compound 14, 6-(2-hydroxy-5-trifluoromethoxy-benzylsulfanyl)-N-(4-fluoro-phenyl)-nicotinamide] | 0.028 ± 0.006
O=C(Nc1ccc(F)cc1)c1ccc(SCC(=O)c2ccccn2)nc1 [Compound 113] | > 10
O=C(CSc1ccc(C(=O)Nc2ccc(F)cc2)cn1)c1cccnc1 [Compound 114] | > 5
O=C(CSc1ccc(C(=O)Nc2ccc(F)cc2)cn1)c1ccncc1 [Compound 115] | > 10
O=C(CSc1ccc(C(=O)Nc2ccc(F)cc2)cn1)c1ccc2occc2c1 [Compound 117] | > 5
O=C(Nc1ccc(F)cc1)c1ccc(SCC(=O)c2coc3ccccc23)nc1 [Compound 118] | > 10
O=C(Nc1ccc(F)cc1)c1ccc(SCC(=O)c2cc3ccc(Br)cc3o2)nc1 [Compound 119] | 0.981 ± 0.29
O=C(Nc1ccc(F)cc1)c1ccc(SCC(=O)c2cc3ccccc3o2)nc1 [Compound 120] | > 10
O=C(CSc1ccc(C(=O)Nc2ccc(F)cc2)cn1)c1ccsc1 [Compound 121] | > 10
O=C(Nc1ccc(F)cc1)c1ccc(SCC(=O)c2cccs2)nc1 [Compound 122] | > 5
O=C(Nc1ccc(F)cc1)c1ccc(SCC(=O)c2ccc(-c3ccccc3)s2)nc1 [Compound 123] | > 10
O=C(Nc1ccc(F)cc1)c1ccc(SCC(=O)c2ccc(-c3ccccn3)s2)nc1 [Compound 124] | > 10
O=C(CSc1ccc(C(=O)Nc2ccc(F)cc2)cn1)c1ccc2sccc2c1 [Compound 125] | > 10
O=C(Nc1ccc(F)cc1)c1ccc(SCC(=O)c2csc3ccccc23)nc1 [Compound 126] | > 5
O=C(Nc1ccc(F)cc1)c1ccc(SCC(=O)c2csc3ccc(Br)cc23)nc1 [Compound 127] | 1.25 ± 0.32
O=C(Nc1ccc(F)cc1)c1ccc(SCC(=O)c2cc3ccccc3s2)nc1 [Compound 128] | 1.81 ± 0.52
Cc1c(C(=O)CSc2ccc(C(=O)Nc3ccc(F)cc3)cn2)sc2ccccc12 [Compound 129] | > 10
Cc1ccc2sc(C(=O)CSc3ccc(C(=O)Nc4ccc(F)cc4)cn3)c(C)c2c1 [Compound 130] | > 10
Cc1onc(-c2ccccc2)c1C(=O)CSc1ccc(C(=O)Nc2ccc(F)cc2)cn1 [Compound 131] | > 5
Cc1c(C(=O)CSc2ccc(C(=O)Nc3ccc(F)cc3)cn2)sc2ccc(Cl)cc12 [Compound 132] | 0.78 ± 0.51
O=C(Nc1ccc(F)cc1)c1ccc(SCC(=O)c2cc(-c3ccccc3)no2)nc1 [Compound 133] | > 5
O=C(Nc1ccc(F)cc1)c1ccc(SCC(=O)c2cc(-c3ccc(Cl)cc3)no2)nc1 [Compound 134] | > 10
O=C(Nc1ccc(F)cc1)c1ccc(SCC(=O)c2cc(-c3ccc(Cl)c(Cl)c3)no2)nc1 [Compound 135] | > 10
O=C(Nc1ccc(F)cc1)c1ccc(SCC(=O)c2cc(-c3ccc(Cl)cc3Cl)no2)nc1 [Compound 136] | > 5
O=C(Nc1ccc(F)cc1)c1ccc(SCC(=O)c2cc(C(=O)O)no2)nc1 [Compound 138] | 0.081 ± 0.01
O=C(CSc1ccc(C(=O)Nc2ccc(F)cc2)cn1)c1ccc2c(c1)OCO2 [Compound 139] | > 5

Compound | IC50 [µM]
O=C(CSc1ccc(C(=O)Nc2ccc(F)cc2)cn1)c1ccc2c(c1)OCCO2 [Compound 140] | 0.194 ± 0.052
O=C(Nc1ccc(F)cc1)c1ccc(SCC(=O)c2cccc3c2OCCO3)nc1 [Compound 141] | > 5
O=C(CSc1ccc(C(=O)Nc2ccc(F)cc2)cn1)c1ccc2c(c1)OCCCO2 [Compound 142] | > 5
O=C(Nc1ccc(F)cc1)c1ccc(SCC(=O)c2cccc3c2OCCCO3)nc1 [Compound 143] | > 10
O=C(Nc1ccc(F)cc1)c1ccc(SCC(=O)c2ccsn2)nc1 [Compound 144] | 2.24 ± 0.71
O=C(Nc1ccc(F)cc1)c1ccc(SCC(=O)c2nc3ccccc3s2)nc1 [Compound 145] | > 5
Cc1nc(-c2ccccc2)sc1C(=O)CSc1ccc(C(=O)Nc2ccc(F)cc2)cn1 [Compound 146] | > 10
Cc1nc(-c2ccc(Cl)cc2)sc1C(=O)CSc1ccc(C(=O)Nc2ccc(F)cc2)cn1 [Compound 147] | > 5
Cc1nc(-c2ccc(C(F)(F)F)cc2)sc1C(=O)CSc1ccc(C(=O)Nc2ccc(F)cc2)cn1 [Compound 148] | > 5
Cc1nc(-c2cnccn2)sc1C(=O)CSc1ccc(C(=O)Nc2ccc(F)cc2)cn1 [Compound 149] | > 10
Cc1c(C(=O)CSc2ccc(C(=O)Nc3ccc(F)cc3)cn2)cnn1-c1ccccc1 [Compound 150] | > 10
Cn1c(C(=O)CSc2ccc(C(=O)Nc3ccc(F)cc3)cn2)nc2ccccc21 [Compound 151] | 0.703 ± 0.291
O=C(Nc1ccc(F)cc1)c1ccc(SCC(=O)c2cc(Br)cc3c2OCC3)nc1 [Compound 152] | 0.529 ± 0.44
O=C(Nc1ccc(F)cc1)c1ccc(SCC(=O)C(c2ccccc2)c2ccccc2)nc1 [Compound 153] | 1.23
CN(C(=O)c1ccc(SCc2ccccc2B(O)O)nc1)c1ccc(F)cc1 [Compound 154] | > 5
O=C(c1ccc(SCc2ccccc2B(O)O)nc1)N(Cc1ccccn1)c1ccc(F)cc1 [Compound 155] | 0.078 ± 0.018
O=C(c1ccc(SCc2ccccc2B(O)O)nc1)N(CC1CCCCN1)c1ccc(F)cc1 (stereo not shown) [Compound 156] | > 5
O=C(c1ccc(SCc2ccccc2B(O)O)nc1)N(Cc1ccncc1)c1ccc(F)cc1 [Compound 157] | 0.89 ± 0.67
O=C(O)CN(C(=O)c1ccc(SCc2ccccc2B(O)O)nc1)c1ccc(F)cc1 [Compound 158] | 1.99 ± 0.46
O=C(Nc1ccc(OC(F)(F)F)cc1)c1ccc(SCc2ccccc2B(O)O)nc1 [Compound 159] | 0.278 ± 0.148
O=C(Nc1ccc(-c2nn[nH]n2)cc1)c1ccc(SCc2ccccc2B(O)O)nc1 [Compound 161] | > 10
O=C(Nc1ccncc1)c1ccc(SCc2ccccc2B(O)O)nc1 [Compound 162] | 0.52 ± 0.263
O=C(Nc1ccc(O)cc1)c1ccc(SCc2ccccc2B(O)O)nc1 [Compound 163] | 0.105 ± 0.044
O=C(Nc1ccc(F)cn1)c1ccc(SCc2ccccc2B(O)O)nc1 [Compound 164] | 0.294 ± 0.119
O=C(Nc1ccc(F)cc1O)c1ccc(SCc2ccccc2B(O)O)nc1 [Compound 165] | 0.037 ± 0.007
O=C(Nc1ccc(F)c(C(=O)O)c1)c1ccc(SCc2ccccc2B(O)O)nc1 [Compound 166] | > 10

same assay, conditions: read-out: IC50

Compound | IC50 [µM]
O=C(Nc1ccc(F)cc1)c1ccc(SCC(=O)c2ccco2)nc1 [Compound 116] | > 10
O=C(O)c1ccc(NC(=O)c2ccc(SCc3ccccc3B(O)O)nc2)cc1 [Compound 160] | > 10

biological target: T1, CXCR2; assay: Agonist activity: intracellular calcium release in human neutrophils in the absence of GROα; type: cell-based; conditions: human neutrophils, agonist calcium release
Description: as §1, §2, §3
Intracellular calcium release is a hallmark of CXCR2 activation by endogenous agonists, such as GROα and IL-8.

Compound | EC50
O=C(Nc1ccc(F)cc1)c1ccc(SCc2ccccc2O)nc1 [Compound 13] | 2.4 µM
O=C(Nc1ccc(F)cc1)c1ccc(SCc2cc(OC(F)(F)F)ccc2O)nc1 [Compound 14, 6-(2-hydroxy-5-trifluoromethoxy-benzylsulfanyl)-N-(4-fluoro-phenyl)-nicotinamide] | 1.8 µM and 1.81 µM

same assay, conditions: relative to the response to 25 nM GROα

Compound | Magnitude of Agonist Response (% of GROα only Control) [%]
O=C(Nc1ccc(F)cc1)c1ccc(SCc2ccccc2O)nc1 [Compound 13] | 60
O=C(Nc1ccc(F)cc1)c1ccc(SCc2cc(OC(F)(F)F)ccc2O)nc1 [Compound 14, 6-(2-hydroxy-5-trifluoromethoxy-benzylsulfanyl)-N-(4-fluoro-phenyl)-nicotinamide] | 15

Source: patent US8981106B2, “Pyrimidinecarboxamides as CXCR2 modulators” (Syntrix Biosystems, Inc., priority 2009, dated 2015)
